Assays:
[1] = tested on: STZ-Diabetic Rats; test: AGEs/ALEs (CML, CEL) in skin collagen by LC-ESI/MS/MS (Example 12); type: in vivo, rat
Experimental: Tail tendon collagen was isolated from each rat in Example 11 and the degree of AGE formation in collagen was assessed by measurement of fluorescent AGE after enzymatic digestion. Figarola et al., Diabetologia 46:1140-115, 2003. Skin collagen isolation and reduction was performed as described in Shaw et al., Methods Mol. Biol. 186:129-137, 2002. Levels of AGEs/ALEs were normalized to the lysine content of the collagen samples.
Ion-pair reversed-phase liquid chromatography/tandem mass spectroscopy analysis was performed using an Agilent Technologies™ LC1100 series system interfaced to a Micromass Quatro™ Ultima Triple Quadripole Mass Spectrometer. HPLC separation was achieved using a Phenomenex Synergi™ Hydro-RP […] 80A 150×2.0 mm column preceded by a Phenomenex C18 guard column. The column temperature was maintained at 25° C. and the flow was 0.2 mL/minute. The isocratic mobile phase consisted of 10% acetonitrile and 0.1% heptafluorobutyric acid in water. Total run time was 12 minutes; injection volume was 20 μL. The autoinjector temperature was 5° C. The electrospray ionization source of the mass spectrophotometer was operated in the positive ion mode with a cone gas flow of 190 L/hour and desolvation gas flow of 550 L/hour. The capillary voltage was set to 2.7 kV. Cone and collision cell voltages were optimized to 25 V and 13 eV for CML, 33 V and 12 eV d4CML, 24 V and 14 eV for CEL, […] and 14 eV for D8CEL, and […] and 16 eV for lysine, respectively. […] The desolvation temperature was increased to 300° C., and the solvent delay program was used from 0 to 3 minutes and 10 to 12 minutes. The fragmentation of these compounds can be induced under collision dissociation conditions and acidic mobile phase. The precursor→product ion combinations at m/z were 205.1→130.11 for CML, 209.12→134.12 for d4CML, 219.11→130.11 for CEL, 227.18→138.16 for d8CEL, 147.15→84.21 for lysine and 151.27→88.33 for DL-d4Lysine were used in multiple reaction monitoring (MRM) mode to determine these compounds. MassLynx™ version 3.5 software was used for data acquisition and processing.
All solutions of standards and internal standards were prepared in water. Standard solution containing both CML and CEL were prepared at six concentrations: 4, 10, 20, 40, 100 and 200 pmol/mL for CML and 2, 5, 10, 20, 50 and 100 pmol/mL for CEL. Quality control solutions were prepared at two concentrations: 7.5 and 150 pmol/mL for CML and 3.75 and 75 pmol/mL for CEL. A stock solution of heavy-labeled internal standards (d4CML and d8CEL) was prepared at 800 pmol/mL. For generation of a standard curve, 130 μL of standard solution was freshly mixed with 10 μL 0.1 M ammonium bicarbonate, 10 μL 0.05% HFBA and 10 μL internal standard stock solution to give a caliber. […]

[2] = tested on: STZ-Diabetic Rats; test: Renal parameters in STZ-diabetic rats treated with LR-9 or LR-74 (Example 10); type: in vivo, rat; conditions: for Kidney/Body wt. Ratio / Plasma Creatinine / Urinary Albumin: 50 mg/L in drinking water, 32 weeks; for decrease of elevated plasma creatinine concentrations: diabetic rats
Experimental: Diabetes was induced in male Sprague-Dawley rats by a single i.p. injection of STZ (65 mg/kg in citrate buffer, pH 4.5) after an overnight fast. Non-diabetic animals were injected with citrate buffer only. One week after STZ injection, only animals with >20 mmol/L plasma glucose were classified as diabetic and included in the study. Diabetic rats were divided randomly into the following treatment groups: diabetic untreated (D); and two diabetic treatment groups, receiving either LR-9 (D+LR-9) or LR-74 (D+LR-74) at 50 mg/L in drinking water. Three non-diabetic groups were studied concurrently: one untreated non-diabetic group (ND), and two non-diabetic groups treated with either LR-9 (ND+LR-9) or LR-74 (ND+LR-74) at 50 mg/L in drinking water.
Both plasma glucose and body weight were checked before administration of the drug, and no differences were detected among the three diabetic treatment groups or among the three non-diabetic groups. All animals were housed individually and were given free access to food and water. Glycemic control and body weights were monitored periodically. To limit hyperglycemia and ensure that animals maintained body weight, diabetic animals received 3 IU of ultralente insulin two to three times per week. The study was carried out over 32 weeks. Progression of renal dysfunction was assessed by measuring urinary albumin and plasma creatinine concentrations according to known methods. Figarola et al., Diabetologia 46:1140-115, 2003.

[3] = tested on: Human LDL; test: Cu++-mediated oxidation of LDL, TBARS (Example 9); conditions: 5 μM CuCl2, 10-250 μM compound, 5 hours, 37° C.
Experimental: The ability of the LR compounds to inhibit lipid peroxidation was tested using Cu^++-mediated lipid oxidation, a common in vitro model for studies on lipoxidative modifications of proteins. The effects of the LR compounds on lipid peroxidation were studied using Cu^++-mediated oxidation of LDL. Human LDL (50 μg of protein/mL) was incubated at 37° C. in chelex-treated PBS buffer alone or in the presence of 5 μM CuCl2 or 5 μM CuCl2 plus various concentrations of the inhibitor compounds (10-250 μM). After 5 hours of incubation, the amount of thiobarbituric acid reactive substances (expressed as malondialdehyde (MDA) equivalents) generated in the reaction mixture was calculated according to methods described by Dillon et al., Life Sci. #72:1583-1594, 2003. Briefly, aliquots from each sample were precipitated with 20% trichloroacetic acid, centrifuged and an equal volume of 1% thiobarbituric acid was added to the supernatant. The samples then were heated to 95° C. for 10 minutes, and upon cooling, the absorbance was read at 532 nm. Hydrolyzed tetraethoxypropane was used as a standard for the MDA equivalent calculation.

Row | Compound | CEL concentration in skin collagen [1] | CML concentration in skin collagen [1] | Kidney/Body wt. Ratio ([2]; diabetic (D) rats) | Plasma Creatinine ([2]; diabetic (D) rats) | Urinary Albumin ([2]; diabetic (D) rats) | decrease of elevated plasma creatinine concentrations [2] | Kidney/Body wt. Ratio ([2]; non-diabetic (ND) rats) | Plasma Creatinine ([2]; non-diabetic (ND) rats) | Urinary Albumin ([2]; non-diabetic (ND) rats) | inhibition of Cu++-mediated LDL oxidation (lipid peroxidation) [3]
1 | CC(C)(Oc1ccc(NC(=O)c2ccc3ccccc3c2)cc1)C(=O)O [LR-9, 4-(2-napthylcarboxamido) phenoxyisobutyric acid] | significantly limited the increase | significantly limited the increase | 1.58 ± 0.11 g/100 g | 1.79 ± 0.39 mg/dL | 18.0 ± 3.7 mg/42 hr | ~50% | 0.51 ± 0.01 g/100 g | 0.42 ± 0.02 mg/dL | 4.8 ± 1.2 mg/42 hr | 
2 | CC(Oc1cccc2cccnc12)C(=O)O (centres unmarked) [LR-74, 2-(8-quinolinoxy) propionic acid] | significantly limited the increase | significantly limited the increase | 1.52 ± 0.10 g/100 g | 1.64 ± 0.44 mg/dL | 14.3 ± 3.7 mg/42 hr | ~50% | 0.52 ± 0.01 g/100 g | 0.42 ± 0.03 mg/dL | 4.6 ± 1.2 mg/42 hr | better than AG
3 | methylene bis(4,4′-(2-chlorophenylureidophenoxyisobutyric acid) [LR-90] |  |  |  |  |  |  |  |  |  | better than AG

Source: patent US7652037B2, “Methods of lowering lipid levels in a mammal” (City Of Hope, priority 2003, dated 2010)
